According to article PMC5320485, “4-isopropylcyclohexanol has potential analgesic effects through the inhibition of anoctamin 1, TRPV1 and TRPA1 channel activities” (Scientific Reports, 2017):

Assays:
Type in all cases: cell-based
human TRPA1 (hTRPA1) = human TRPA1 (hTRPA1) (Homo sapiens, UniProt O75762); assay: whole-cell patch clamp in HEK293T cells; inhibits AITC currents at […] and weakly activates alone
[1] = biological target: T1, mouse anoctamin 1 (mANO1) (Mus musculus, UniProt Q8BHY3); assay: whole-cell patch clamp in HEK293T cells, dose-response at −[…] mV
T1 construct: gene Ano1
T1 sequence (Q8BHY3 1-960): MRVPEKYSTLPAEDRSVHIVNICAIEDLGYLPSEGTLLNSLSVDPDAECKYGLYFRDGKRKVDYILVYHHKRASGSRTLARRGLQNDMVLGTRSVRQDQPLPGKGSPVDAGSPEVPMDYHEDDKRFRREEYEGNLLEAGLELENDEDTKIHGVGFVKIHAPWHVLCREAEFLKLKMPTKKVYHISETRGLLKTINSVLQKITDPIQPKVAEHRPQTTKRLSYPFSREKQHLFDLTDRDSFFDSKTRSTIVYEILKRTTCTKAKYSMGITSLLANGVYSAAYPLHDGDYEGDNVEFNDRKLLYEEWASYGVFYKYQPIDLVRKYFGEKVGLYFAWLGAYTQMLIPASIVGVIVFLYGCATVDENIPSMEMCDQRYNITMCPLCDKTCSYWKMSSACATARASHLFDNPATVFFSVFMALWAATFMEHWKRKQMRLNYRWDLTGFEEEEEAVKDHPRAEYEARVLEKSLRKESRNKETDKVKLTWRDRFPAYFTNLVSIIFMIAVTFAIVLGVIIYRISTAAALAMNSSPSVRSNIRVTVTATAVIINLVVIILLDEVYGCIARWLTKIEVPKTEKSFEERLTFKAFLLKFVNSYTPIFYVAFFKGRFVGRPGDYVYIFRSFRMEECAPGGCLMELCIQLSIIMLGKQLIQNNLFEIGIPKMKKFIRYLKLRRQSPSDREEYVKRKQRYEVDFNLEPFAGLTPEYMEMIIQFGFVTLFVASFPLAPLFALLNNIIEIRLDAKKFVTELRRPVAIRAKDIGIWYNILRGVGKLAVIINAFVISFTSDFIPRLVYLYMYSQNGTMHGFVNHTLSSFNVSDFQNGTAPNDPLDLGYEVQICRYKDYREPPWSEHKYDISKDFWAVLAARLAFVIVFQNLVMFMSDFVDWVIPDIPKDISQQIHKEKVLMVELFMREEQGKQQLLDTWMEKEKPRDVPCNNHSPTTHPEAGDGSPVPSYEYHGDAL

[2] = biological target: T1, mouse anoctamin 1 (mANO1); assay: whole-cell patch clamp in HEK293T cells at […]

Chain of human TRPA1 (hTRPA1) (O75762 whole entry): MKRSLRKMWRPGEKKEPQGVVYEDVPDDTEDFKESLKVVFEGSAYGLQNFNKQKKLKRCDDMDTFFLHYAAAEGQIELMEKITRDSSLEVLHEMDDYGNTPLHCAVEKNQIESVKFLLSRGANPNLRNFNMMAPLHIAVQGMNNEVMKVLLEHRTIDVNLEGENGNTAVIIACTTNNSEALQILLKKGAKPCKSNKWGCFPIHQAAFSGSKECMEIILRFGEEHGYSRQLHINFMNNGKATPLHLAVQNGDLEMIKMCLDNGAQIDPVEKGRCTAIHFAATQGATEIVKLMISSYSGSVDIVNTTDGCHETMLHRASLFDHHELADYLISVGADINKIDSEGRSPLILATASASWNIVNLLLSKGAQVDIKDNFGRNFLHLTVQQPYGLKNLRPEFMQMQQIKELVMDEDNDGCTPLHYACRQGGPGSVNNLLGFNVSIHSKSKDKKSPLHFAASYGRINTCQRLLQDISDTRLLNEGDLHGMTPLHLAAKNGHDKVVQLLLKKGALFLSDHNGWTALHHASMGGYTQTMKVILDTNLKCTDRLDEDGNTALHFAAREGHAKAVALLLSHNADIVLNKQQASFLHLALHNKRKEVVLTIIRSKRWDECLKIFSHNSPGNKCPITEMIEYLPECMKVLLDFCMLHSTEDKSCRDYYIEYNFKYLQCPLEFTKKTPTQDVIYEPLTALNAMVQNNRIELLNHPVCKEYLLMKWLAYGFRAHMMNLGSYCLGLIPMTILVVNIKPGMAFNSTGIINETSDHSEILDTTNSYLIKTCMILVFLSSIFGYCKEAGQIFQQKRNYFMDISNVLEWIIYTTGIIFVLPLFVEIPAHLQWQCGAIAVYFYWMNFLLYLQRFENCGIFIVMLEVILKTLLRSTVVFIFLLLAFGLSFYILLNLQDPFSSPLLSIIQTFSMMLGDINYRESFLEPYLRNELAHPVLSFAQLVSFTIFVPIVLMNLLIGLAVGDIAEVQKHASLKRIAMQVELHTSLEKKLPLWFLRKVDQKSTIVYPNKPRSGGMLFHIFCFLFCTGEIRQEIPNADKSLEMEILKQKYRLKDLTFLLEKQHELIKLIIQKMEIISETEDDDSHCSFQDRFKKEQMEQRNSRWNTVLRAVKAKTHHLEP

Compound | whole-cell patch clamp in HEK293T cells; inhibits AITC currents at 3 mM and weak (human TRPA1 (hTRPA1)) | IC50 [1] | whole-cell patch clamp in HEK293T cells at 3 mM [2]
CC(C)C1CCC(O)CC1 (stereo not shown) [4-iPr-CyH-OH, 4-isopropylcyclohexanol] | 4-iPr-CyH-OH did not activate hTRPV1 (Fig. 5d), yet did slightly but significantly activate hTRPA1 | 1090 µM | 
CC(C)C1CCCCC1 [iPr-CyH, isopropylcyclohexane] |  |  | isopropylcyclohexane (iPr-CyH) strongly inhibited mANO1 currents to a similar degree as that seen for d-menthol
CC(C)[C@@H]1CC[C@@H](C)C[C@H]1O [l-menthol] |  | 441 µM | 
